Measured values published in ChEMBL document CHEMBL3044541, “Control of crown rot-causing fungal pathogens of banana by inorganic salts and a surfactant” (Crop Prot, 2007).

Key:
Lasiodiplodia theobromae [1] = test: Growth inhibition of Lasiodiplodia theobromae assessed as concentration required for inhibition of mycelial growth incubated for 15 min followed by compound washout measured after 7 days in absence of surfactant APSA 80; type: functional
Lasiodiplodia theobromae [2] = test: Growth inhibition of Lasiodiplodia theobromae assessed as concentration required for inhibition of mycelial growth incubated for 15 min followed by compound washout measured after 7 days in presence of surfactant APSA 80; type: functional
Fusarium verticillioides [3] = test: Antifungal activity against Fusarium verticillioides infected Cavendish banana fruit assessed as reduction in crown rot incubated for 15 min followed by compound washout measured after 3 weeks in presence of surfactant APSA 80 relative to control; type: functional; design: scale not given: the % may be the effect or the level left; details: pooled result: one value given for 4 cell lines, strains, targets or settings
Fusarium verticillioides [4] = test: Antifungal activity against Fusarium verticillioides infected Cavendish banana fruit assessed as reduction in crown rot incubated for 15 min followed by compound washout measured after 3 weeks in absence of surfactant APSA 80 relative to control; type: functional; design: scale not given: the % may be the effect or the level left; details: pooled result: one value given for 4 cell lines, strains, targets or settings
Fusarium verticillioides [5] = test: Antifungal activity against Fusarium verticillioides infected Cavendish banana fruit assessed as reduction in crown rot incubated for 15 min followed by compound washout measured after 2 weeks in presence of surfactant APSA 80 relative to control; type: functional; design: scale not given: the % may be the effect or the level left
Colletotrichum musae [6] = test: Antifungal activity against Colletotrichum musae infected Cavendish banana fruit assessed as reduction in crown rot incubated for 15 min followed by compound washout measured after 2 weeks in presence of surfactant APSA 80 relative to control; type: functional; design: scale not given: the % may be the effect or the level left
Thielaviopsis paradoxa [7] = test: Antifungal activity against Ceratocystis paradoxa infected Cavendish banana fruit assessed as reduction in crown rot incubated for 15 min followed by compound washout measured after 2 weeks in presence of surfactant APSA 80 relative to control; type: functional; design: scale not given: the % may be the effect or the level left
Lasiodiplodia theobromae [8] = test: Antifungal activity against Lasiodiplodia theobromae infected Cavendish banana fruit assessed as reduction in crown rot incubated for 15 min followed by compound washout measured after 2 weeks in presence of surfactant APSA 80 relative to control; type: functional; design: scale not given: the % may be the effect or the level left
Fusarium verticillioides [9] = test: Antifungal activity against Fusarium verticillioides infected Cavendish banana fruit assessed as reduction in crown rot incubated for 15 min followed by compound washout measured after 2 weeks in absence of surfactant APSA 80 relative to control; type: functional; design: scale not given: the % may be the effect or the level left
Colletotrichum musae [10] = test: Antifungal activity against Colletotrichum musae infected Cavendish banana fruit assessed as reduction in crown rot incubated for 15 min followed by compound washout measured after 2 weeks in absence of surfactant APSA 80 relative to control; type: functional; design: scale not given: the % may be the effect or the level left
Thielaviopsis paradoxa [11] = test: Antifungal activity against Ceratocystis paradoxa infected Cavendish banana fruit assessed as reduction in crown rot incubated for 15 min followed by compound washout measured after 2 weeks in absence of surfactant APSA 80 relative to control; type: functional; design: scale not given: the % may be the effect or the level left
Lasiodiplodia theobromae [12] = test: Antifungal activity against Lasiodiplodia theobromae infected Cavendish banana fruit assessed as reduction in crown rot incubated for 15 min followed by compound washout measured after 2 weeks in absence of surfactant APSA 80 relative to control; type: functional; design: scale not given: the % may be the effect or the level left
Fusarium verticillioides [13] = test: Antifungal activity against Fusarium verticillioides infected Cavendish banana fruit assessed as reduction in crown rot incubated for 15 min followed by compound washout measured after 1 week in presence of surfactant APSA 80 relative to control; type: functional; design: scale not given: the % may be the effect or the level left
Colletotrichum musae [14] = test: Antifungal activity against Colletotrichum musae infected Cavendish banana fruit assessed as reduction in crown rot incubated for 15 min followed by compound washout measured after 1 week in presence of surfactant APSA 80 relative to control; type: functional; design: scale not given: the % may be the effect or the level left
Thielaviopsis paradoxa [15] = test: Antifungal activity against Ceratocystis paradoxa infected Cavendish banana fruit assessed as reduction in crown rot incubated for 15 min followed by compound washout measured after 1 week in presence of surfactant APSA 80 relative to control; type: functional; design: scale not given: the % may be the effect or the level left
Lasiodiplodia theobromae [16] = test: Antifungal activity against Lasiodiplodia theobromae infected Cavendish banana fruit assessed as reduction in crown rot incubated for 15 min followed by compound washout measured after 1 week in presence of surfactant APSA 80 relative to control; type: functional; design: scale not given: the % may be the effect or the level left
Fusarium verticillioides [17] = test: Antifungal activity against Fusarium verticillioides infected Cavendish banana fruit assessed as reduction in crown rot incubated for 15 min followed by compound washout measured after 1 week in absence of surfactant APSA 80 relative to control; type: functional; design: scale not given: the % may be the effect or the level left
Colletotrichum musae [18] = test: Antifungal activity against Colletotrichum musae infected Cavendish banana fruit assessed as reduction in crown rot incubated for 15 min followed by compound washout measured after 1 week in absence of surfactant APSA 80 relative to control; type: functional; design: scale not given: the % may be the effect or the level left
Thielaviopsis paradoxa [19] = test: Antifungal activity against Ceratocystis paradoxa infected Cavendish banana fruit assessed as reduction in crown rot incubated for 15 min followed by compound washout measured after 1 week in absence of surfactant APSA 80 relative to control; type: functional; design: scale not given: the % may be the effect or the level left
Lasiodiplodia theobromae [20] = test: Antifungal activity against Lasiodiplodia theobromae infected Cavendish banana fruit assessed as reduction in crown rot incubated for 15 min followed by compound washout measured after 1 week in absence of surfactant APSA 80 relative to control; type: functional; design: scale not given: the % may be the effect or the level left
Fusarium verticillioides [21] = test: Antifungal activity against Fusarium verticillioides assessed as reduction in colony diameter at 10 to 160 g/l incubated for 15 min followed by compound washout measured after 7 days in absence of surfactant APSA 80 relative to control; type: functional; design: scale not given: the % may be the effect or the level left
Colletotrichum musae [22] = test: Antifungal activity against Colletotrichum musae assessed as reduction in colony diameter at 10 to 160 g/l incubated for 15 min followed by compound washout measured after 7 days in absence of surfactant APSA 80 relative to control; type: functional; design: scale not given: the % may be the effect or the level left
Thielaviopsis paradoxa [23] = test: Antifungal activity against Ceratocystis paradoxa assessed as reduction in colony diameter at 10 to 160 g/l incubated for 15 min followed by compound washout measured after 7 days in absence of surfactant APSA 80 relative to control; type: functional; design: scale not given: the % may be the effect or the level left
Lasiodiplodia theobromae [24] = test: Antifungal activity against Lasiodiplodia theobromae assessed as reduction in colony diameter at 10 to 160 g/l incubated for 15 min followed by compound washout measured after 7 days in absence of surfactant APSA 80 relative to control; type: functional; design: scale not given: the % may be the effect or the level left
Fusarium verticillioides [25] = test: Antifungal activity against Fusarium verticillioides assessed as reduction in colony diameter at 10 to 160 g/l incubated for 15 min followed by compound washout measured after 7 days in presence of surfactant APSA 80 relative to control; type: functional; design: scale not given: the % may be the effect or the level left
Colletotrichum musae [26] = test: Antifungal activity against Colletotrichum musae assessed as reduction in colony diameter at 10 to 160 g/l incubated for 15 min followed by compound washout measured after 7 days in presence of surfactant APSA 80 relative to control; type: functional; design: scale not given: the % may be the effect or the level left
Thielaviopsis paradoxa [27] = test: Antifungal activity against Ceratocystis paradoxa assessed as reduction in colony diameter at 10 to 160 g/l incubated for 15 min followed by compound washout measured after 7 days in presence of surfactant APSA 80 relative to control; type: functional; design: scale not given: the % may be the effect or the level left
Lasiodiplodia theobromae [28] = test: Antifungal activity against Lasiodiplodia theobromae assessed as reduction in colony diameter at 10 to 160 g/l incubated for 15 min followed by compound washout measured after 7 days in presence of surfactant APSA 80 relative to control; type: functional; design: scale not given: the % may be the effect or the level left
Colletotrichum musae [29] = test: Growth inhibition of Colletotrichum musae assessed as concentration required for inhibition of mycelial growth incubated for 15 min followed by compound washout measured after 7 days in presence of surfactant APSA 80; type: functional
Musa acuminata AAA Group [30] = test: Phytotoxicity against Musa acuminata AAA Group (Cavendish banana) assessed as skin burn incubated for 15 min followed by compound washout measured after 1 to 3 weeks in presence of surfactant APSA 80 relative to control; type: organism-based; details: in vivo
Musa acuminata AAA Group [31] = test: Phytotoxicity against Musa acuminata AAA Group (Cavendish banana) assessed as discoloration incubated for 15 min followed by compound washout measured after 1 to 3 weeks in presence of surfactant APSA 80 relative to control; type: organism-based; details: in vivo

## O=C([O-])O.[Na+] [SODIUM BICARBONATE]
Lasiodiplodia theobromae [1]
  Activity: 150 g/L
Lasiodiplodia theobromae [2]
  Activity: 100 g/L
Fusarium verticillioides [3]
  Activity: 12%
Fusarium verticillioides [4]
  Activity: 58%
Fusarium verticillioides [5]
  Activity: 0%
Colletotrichum musae [6]
  Activity: 0%
Thielaviopsis paradoxa [7]
  Activity: 0%
Lasiodiplodia theobromae [8]
  Activity: 0%
Fusarium verticillioides [9]
  Activity: 25%
Colletotrichum musae [10]
  Activity: 25%
Thielaviopsis paradoxa [11]
  Activity: 25%
Lasiodiplodia theobromae [12]
  Activity: 25%
Fusarium verticillioides [13]
  Activity: 0%
Colletotrichum musae [14]
  Activity: 0%
Thielaviopsis paradoxa [15]
  Activity: 0%
Lasiodiplodia theobromae [16]
  Activity: 0%
Fusarium verticillioides [17]
  Activity: 0%
Colletotrichum musae [18]
  Activity: 0%
Thielaviopsis paradoxa [19]
  Activity: 0%
Lasiodiplodia theobromae [20]
  Activity: 0%
Fusarium verticillioides [21]
  Activity: 0%
Colletotrichum musae [22]
  Activity: 18%
Thielaviopsis paradoxa [23]
  Activity: 36%
Lasiodiplodia theobromae [24]
  Activity: 46%
Fusarium verticillioides [25]
  Activity: 50%
Colletotrichum musae [26]
  Activity: 80%
Thielaviopsis paradoxa [27]
  Activity: 76%
Lasiodiplodia theobromae [28]
  Activity: 72%

## O=C([O-])[O-].[Na+].[Na+] [SODIUM CARBONATE]
Colletotrichum musae [29]
  Activity: 80 g/L
Lasiodiplodia theobromae [1]
  Activity: 150 g/L
Lasiodiplodia theobromae [2]
  Activity: 40 g/L
Musa acuminata AAA Group [30]
  Activity: Toxic
Musa acuminata AAA Group [31]
  Activity: Toxic
Fusarium verticillioides [3]
  Activity: 65%
Fusarium verticillioides [4]
  Activity: 35%
Fusarium verticillioides [5]
  Activity: 25%
Colletotrichum musae [6]
  Activity: 25%
Thielaviopsis paradoxa [7]
  Activity: 25%
Lasiodiplodia theobromae [8]
  Activity: 25%
Fusarium verticillioides [9]
  Activity: 0%
Colletotrichum musae [10]
  Activity: 0%
Thielaviopsis paradoxa [11]
  Activity: 0%
Lasiodiplodia theobromae [12]
  Activity: 0%
Fusarium verticillioides [13]
  Activity: 0%
Colletotrichum musae [14]
  Activity: 0%
Thielaviopsis paradoxa [15]
  Activity: 0%
Lasiodiplodia theobromae [16]
  Activity: 0%
Fusarium verticillioides [17]
  Activity: 0%
Colletotrichum musae [18]
  Activity: 0%
Thielaviopsis paradoxa [19]
  Activity: 0%
Lasiodiplodia theobromae [20]
  Activity: 0%
Fusarium verticillioides [21]
  Activity: 29%
Colletotrichum musae [22]
  Activity: 40%
Thielaviopsis paradoxa [23]
  Activity: 63%
Lasiodiplodia theobromae [24]
  Activity: 54%
Fusarium verticillioides [25]
  Activity: 75%
Colletotrichum musae [26]
  Activity: 87%
Thielaviopsis paradoxa [27]
  Activity: 85%
Lasiodiplodia theobromae [28]
  Activity: 91%
